Columns and labels:
Type in all cases: cell-based, mouse
Nos2 mRNA = test: Semi-quantitative real-time RT-PCR of Nos2 mRNA in primary astrocytes challenged with MPTP and TNF-α/IFN-γ
Description: Primary Cell Isolation. Cortical astrocytes were isolated from day-1 old C57B1/6 or transgenic mouse pups according to procedures described previously (Aschner and Kimelberg, 1991), and purity confirmed through immunofluorescent staining using antibodies against GFAP and Iba1. Briefly, pups were euthanized by decapitation under isofluorane anesthesia and cortices (astrocytes) or striatum (neurons) rapidly dissected out, and meninges removed. Tissue was subject to digestion with Dispase (1.5 U/ml), and selection of astrocytes was performed by complete media change 24 hrs after plating to remove non-astroglial cell types by serum shock. This method routinely results in cultures that are approximately 99% pure astrocytes, with less than 1% contaminating microglial cells (Supplementary FIG. 1). Astrocyte cultures were maintained at 37° C. and 5% CO2 in minimum essential media supplemented with 10% heat-inactivated fetal bovine serum and a penicillin (0.001 mg/ml), streptomycin (0.002 mg/ml), and neomycin (0.001) antibiotic cocktail. Cell media was changed 24 hrs prior to all treatments. Primary neuronal cultures were seeded onto poly-L-lysine-coated 30 mm glass coverslips at 4×10^5 cells per well, and maintained in neurobasal media supplemented with 2 mM L-glutamine, a B27 supplement, and a penicillin (0.001 mg/ml), streptomycin (0.002 mg/ml), and neomycin (0.001) antibiotic cocktail. Neuronal culture media was changed 24 hours after isolation and every two days afterward, and culture purity confirmed through cell morphology and immunostaining against GAD65/67 (Supplementary FIG. 2). Neurons were used within two weeks of plating. All animal procedures were approved by the Colorado State University Institutional Animal Care and Use Committee, and were conducted in accordance with published NIH guidelines.
RT and Real-Time RT-PCR. […] RNA was isolated using the RNEasy Mini kit (Qiagen, Valencia, Calif.), and purity and concentration were determined using a Nanodrop ND 1000 spectrophotometer (NanoDrop Technologies, Wilmington, Del.). Following purification, 1 ug of RNA was used as template for reverse transcriptase (RT) reactions using the iScript RT kit (BioRad, Hercules Calif.). The resulting cDNA was immediately profiled for Nos2 gene expression (forward: 5′-TCACGCTTGGGTCTTGTT-3′ (SEQ ID NO:1); reverse: 5′-[…] -3′3′ (SEQ ID NO:2)) using β-Actin as a housekeeping gene (forward: 5′-[…]-3′3′ (SEQ ID NO:3); reverse: 5′-CGCTCGTTGCCAATACTG-3′3′ (SEQ ID NO:4)) according to the 2^−ΔΔCT method (Livak and Schmittgen, 2001).

[1] = system: primary striatal neurons co-cultured with activated astrocytes; test: Astrocyte-neuron co-culture: apoptosis of primary striatal neurons (caspase activity, Annexin V binding); settings: for Apoptosis in co-cultured striatal neurons (caspase activity and Annexin V-binding): astrocytes co-treated with 10 μM for 8 hours, six hours of co-culture, FIG. 6 C-D
Procedure: Astrocyte Neuron Co-Culture. Cells were isolated as described above and astrocytes grown to confluence on permeable cell culture inserts (BD Biosciences, San Jose, Calif.) prior to treatment. Astrocytes were then treated with MPTP (10 μM), TNF-α (10 pg/ml) and IFN-γ (1 ng/ml) in the presence or absence of DIM-C-pPhtBu (10 μM), Rosiglitazone (10 μM) AMT (25 nM), or DMSO vehicle control for 8 hours. Media was then removed, and the astrocytes washed three times with sterile PBS to prevent carryover of treatment medium to the neurons, and the inserts were placed directly in each well over cultured neurons. Astrocyte-containing inserts were removed following six hours of co-culture, and neuronal caspase activity and phosphatidylserine translocation were measured by widefield fluorescence microscopy using the general cell permeable fluorescent caspase substrate rhodamine 110, bis-(L-aspartic acid amide) and an Annexin V Alexa Fluor 680 conjugate, respectively. Images were acquired using a Zeiss 20× air PlanApochromat objective and at least 10 microscopic fields were examined per treatment group over three independent experiments.
The efficacy of DIM-C-pPhtBu in preventing astrocyte-dependent neuronal apoptosis was examined in FIG. 6. Astrocytes were grown to confluence in cell culture inserts that are permeable to small molecules but prevent direct cell-cell contact. Following treatment of astrocytes with MPTP and TNF-α/IFN-γ in the presence or absence of DIM-C-pPhtBu (10 μM), rosiglitazone (10 μM), the NOS2 inhibitor AMT (25 nM), or DMSO, astrocytes were washed with PBS and co-incubated directly above primary striatal neurons in neurobasal medium. Indices of neuronal apoptosis were then measured using live-cell fluorescence imaging of caspase activity (FIG. 6A) and Annexin V binding (FIG. 6B). […] The DMSO vehicle control had no suppressive effect.
Differing letters denote statistical significance (p<0.05).

NF-κB = NF-κB EGFP reporter live-cell imaging in cis-NF-κB-EGFP transgenic astrocytes; settings: 10 μM, FIG. 4B
Description: NF-κB reporter assays in cis-NF-κB^EGFP transgenic astrocytes and expression of mutant IκBα. To measure activation of NF-κB in live cell, astrocytes were isolated from a unique transgenic mouse expressing a reporter construct consisting of three HIV NF-κB consensus elements inserted 5′ to a minimal c-fos promoter that drives expression of enhanced green fluorescent protein (EGFP) (Magness et al., 2004) (Provided by Dr. Christian Jobin, University of North Carolina at Chapel Hill). NF-κB activity was determined by live-cell imaging using a Zeiss 20× air PlanApochromat objective using SlideBook v4.2 (Intelligent Imaging Innovations, Inc., Denver, Colo.). […] This approach was consistent between all replicates. At least four microscopic fields were examined per treatment group in each of at least three independent experiments, and reported as percent activated cells 8 hours following treatments. […]
A wide array of inflammatory genes, including Nos2, are driven by the NF-κB signaling cascade. […] Real-time imaging of GFP fluorescence was performed in control transgenic astrocytes exposed to saline and in cells exposed to MPTP and TNF-α/IFN-γ in combination with DIM-C-pPhtBu (10 μM), rosiglitazone (10 μM), or DMSO. […]

[2] = astrocytes + MPTP, TNF-α, IFN-γ, FIG. 7(B), concentration not given
[3] = 10 μM, astrocytes + MPTP, TNF-α/IFN-γ, FIG. 2B

Row | SMILES | Suppression of Nos2 mRNA (Nos2 mRNA; [2]) | Suppression of Nos2 mRNA, dose response (Nos2 mRNA; concentrations ranging from 0.1 to 3 μM, astrocytes + MPTP, TNF-α, IFN-γ, FIG. 7(A)) | Annexin V binding in neurons increased by MPTP and cytokine treatment ([1]; 1 uM on astrocytes for 24 hrs, then 6 hrs with primary striatal neurons, FIG. 10(A)) | Activation of astrocytes and subsequent neuronal apoptosis (quantitative Annexin V fluorescence) ([1]; 1 uM on astrocytes for 24 hrs, then 6 hrs with primary striatal neurons, FIG. 10(B)) | Suppression of Nos2 mRNA (Nos2 mRNA; [3]) | Lowest dose that suppressed Nos2 induction to levels statistically indistinguishable from saline-treated control astrocytes (Nos2 mRNA; primary astrocytes, MPTP + TNF-α/IFN-γ) [µM] | Suppression of MPTP and TNF-α/IFN-γ induced Nos2 mRNA expression, dose response (Nos2 mRNA; primary astrocytes, concentrations ranging from 1 to 100 μM, FIG. 2A) | Suppression of MPTP+TNF-α/IFN-γ induced increase in total cellular GFP fluorescence (NF-κB activity) (NF-κB) | Apoptosis in co-cultured striatal neurons (caspase activity and Annexin V-binding) [1]
1 | COc1ccc(C(c2c[nH]c3ccccc23)c2c[nH]c3ccccc23)cc1 [DIM-C-pPhOCH3, 1,1-bis(3′-indolyl)-1-(p-methoxyphenyl)methane] | equivalent suppression of Nos2 mRNA | dose-responsive suppression | inhibited | significantly reduced |  |  |  |  | 
2 | CC(C)(C)c1ccc(C(c2c[nH]c3ccccc23)c2c[nH]c3ccccc23)cc1 [DIM-C-pPhtBu, 1,1-bis(3′-indolyl)-1-(p-t-butylphenyl)methane] |  |  |  |  | equivalent suppression of Nos2 to levels observed in saline-treated control astrocytes | 10 | dose-dependently suppressed | completely suppressed | prevented
3 | CN(CCOc1ccc(CC2SC(=O)NC2=O)cc1)c1ccccn1 (stereo not shown) [rosiglitazone, 5-((4-(2-(methyl-2-pyridinylamino)ethoxy)phenyl)methyl)-2,4-thiazolidinedione, reference compound] | equivalent suppression of Nos2 mRNA |  |  |  | equivalent suppression of Nos2 to levels observed in saline-treated control astrocytes |  |  | completely suppressed | prevented
